The numbers were not newly measured in publication PMC9598925, “Synthetic Amphipathic β-Sheet Temporin-Derived Peptide with Dual Antibacterial and Anti-Inflammatory Activities” (Antibiotics, 2022), which cites them from elsewhere.

Where two headings read alike, the source gives them in different places.

One series concerns A. baumannii ATCC 19606. To be noted: lead peptide, previous works ref 27, 41; cited from earlier work. The source says:
(§1) Table 2 MICs values of peptide [Nle^1, DLeu^9, DLys^10]TL in comparison with [DLeu^9, DLys^10]TL on selected Gram-positive and Gram-negative strains. | column: MIC Values (μM) / [DLeu^9, DLys^10]TL *

For a further series, the system named is B. megaterium Bm11. The settings on record: lead peptide, previous works ref 27, 41; cited from earlier work.
Text: as §1

The test system of the next series is E. coli ATCC 25922. The settings on record: lead peptide, previous works ref 27, 41; cited from earlier work.
Text: as §1

Series [1] concerns K. pneumoniae ATCC BAA-1705. To be noted: lead peptide, previous works ref 27, 41; cited from earlier work.
Text: as §1

A further series relates to P. aeruginosa ATCC 27853. To be noted: lead peptide, previous works ref 27, 41; cited from earlier work.
Text: as §1

For the next series, the system named is S. aureus ATCC 25923. The settings on record: lead peptide, previous works ref 27, 41; cited from earlier work.
Text: as §1

Series [2] relates to S. epidermidis ATCC 12228. The settings on record: lead peptide, previous works ref 27, 41; cited from earlier work.
Text: as §1

The conditions of series [3]: range of concentrations 1 μM–200 μM; cited from earlier work. The text has this:
The impact of Nle on the aggregation propensity was studied in solution and in presence of large unilamellar vesicles (LUVs) mimicking Gram-positive and Gram-negative membranes. The aggregation in aqueous solution was monitored using Nile Red (NR) as a fluorescent probe. […] The introduction of the Nle residue conferred to peptide [Nle^1, DLeu^9, DLys^10]TL a low propensity to aggregate in aqueous solution as shown ...

The conditions of series [4]: LUVs DOPG/CL, cited from earlier work. As for the experimental part: LUVs composed of DOPG/CL (58/42 ratio in moles) and DOPG/DOPE/CL ([…] ratio in moles) were used to mimic Gram-positive and Gram-negative cell membranes, respectively. LUVs were titrated with different peptide concentrations of 5, 10, 15, […], 30, and 50 μM. […] In contrast, the peptide [DLeu^9, DLys^10]TL progressively oligomerized in LUVs (DOPG/CL) as described in Bellavita et al.; in fact, it was partially aggr ...

For series [5] the following is noted: 10 μM peptide; LUVs DOPG/CL, ANTS/DPX; cited from earlier work. As for the experimental part:
In this study, we evaluated the membranolytic activity of analogue [Nle^1, DLeu^9, DLys^10]TL in presence of LUVs mimicking Gram-positive and Gram-negative membranes by using ANTS/DPX leakage assay. […] Indeed, after the treatment with 10 μM of [Nle^1, DLeu^9, DLys^10]TL, we observed ~60% of LUVs leakage in com ...

In series [6] the test system is zymosan-induced peritonitis. To be noted: cited from earlier work.
For series [7] the following is noted: LUVs mimicking Gram-positive and Gram-negative membranes; cited from earlier work. The text has this: The molecular conformation of [Nle^1, DLeu^9, DLys^10]TL was investigated by circular dichroism (CD) spectroscopy both in LUVs made of DOPG/CL and DOPG/DOPE/CL (Figure 3, panel A). […] In contrast, the introduction of Nle induced changes in molecular conformation, determining the formation of β-aggregates.

The next series relates to HaCaT cells. The settings on record: highest concentration of 25 μM; previous work of the authors; cited from earlier work.
For series [8], the system named is J774A.1 murine macrophage cells. The settings on record: highest concentration of 25 μM; previous work of the authors; cited from earlier work.

With FVPWFSKFlkRIL [[DLeu^9, DLys^10]TL], the MIC (commonly the smallest concentration in the dilution series that meets the test's criterion for growth inhibition) with A. baumannii ATCC 19606 is 6.25 µM; with B. megaterium Bm11 it was 3.12 µM; with E. coli ATCC 25922, 12.5 µM; in series [1], 12.5 µM; in the series on P. aeruginosa ATCC 27853, 12.5 µM; with S. aureus ATCC 25923, 6.25 µM. Further, the MIC in [2] is 3.12 µM. In series [3], the aggregation in solution result is recorded as “unable to aggregate in solution”. Besides, the “aggregation (ThT)” value in series [4] (20 μM peptide) was ~ 56%; in series [4] (50 μM peptide), “completely aggregated”. For the same substance, in series [5], the LUVs leakage is on record as ~ 23%. Besides, the “anti-inflammatory activity in vivo” value in [6] is on record as “significant anti-inflammatory activity”. Moreover, in series [6], the “level of pro-inflammatory cytokines IL-6, MCP-1 and TNF-α” value was “reduced the level of pro-inflammatory cytokines”. In series [7], the “molecular conformation (CD)” value is given as “helical aggregates”. For the same substance, the “cytotoxicity on human keratinocytes” value in the series on HaCaT cells was “not cytotoxic”. For the same substance, the “cytotoxicity on murine macrophages” value in series [8] is listed as “not cytotoxic”.
